Results taken from ChEMBL document CHEMBL1772937, “Fingolimod (FTY720): a recently approved multiple sclerosis drug based on a fungal secondary metabolite” (J Nat Prod, 2011).
Activity calls are given as the source filed them. The rule behind the calls is not given here.

Columns and labels:
[1] = test system: Rattus norvegicus; assay: Immunosuppressive activity in F344 rat lateral thorax transplanted with dorsal skin of LEW rat assessed as increase of skin graft survival time at 1 mg/kg, ip; type: functional; conditions: route intraperitoneal
[2] = test system: Rattus norvegicus; assay: Immunosuppressive activity in F344 rat lateral thorax transplanted with dorsal skin of LEW rat assessed as increase of skin graft survival time at 3 mg/kg, ip; type: functional; conditions: route intraperitoneal
[3] = test system: Rattus norvegicus; assay: Toxicity in ip dosed F344 rat lateral thorax transplanted with dorsal skin of LEW rat assessed as concentration required for cause death; type: organism-based; conditions: in vivo
[4] = test system: spleen; assay: Inhibition of serine palmitoyltransferase in mouse spleen cells; type: cell-based
[5] = Immunosuppressive activity in BALB/c/C57BL/6 mouse T cells assessed as inhibition of alloantigen-induced cell proliferation after 96 hrs by measuring [3H]thymidine uptake by mixed lymphocyte reaction assay; type: functional, cell-based; conditions: BALB/c/C57BL/6, T-cell
[6] = test system: MCF7; assay: Antiproliferative activity against human MCF7 cells assessed as growth inhibition after 78 hrs by WST-1 assay; type: functional, cell-based
[7] = test system: MDA-MB-231; assay: Antiproliferative activity against human MDA-MB-231 cells assessed as growth inhibition after 78 hrs by WST-1 assay; type: functional, cell-based
[8] = test system: SK-BR-3; assay: Antiproliferative activity against human SK-BR-3 cells assessed as growth inhibition after 78 hrs by WST-1 assay; type: functional, cell-based
[9] = test system: HCT-116; assay: Antiproliferative activity against human HCT116 cells assessed as growth inhibition after 78 hrs by WST-1 assay; type: functional, cell-based
[10] = test system: SW-620; assay: Antiproliferative activity against human SW620 cells assessed as growth inhibition after 78 hrs by WST-1 assay; type: functional, cell-based
[11] = (§1) Antiproliferative activity human LNCAP-AI cells assessed as growth inhibition after 78 hrs by WST-1 assay; type: functional, cell-based
[12] = test system: MGC-803; assay: Antitumor activity against human MGC803 cells xenografted in nude mouse assessed as inhibition of tumor growth at 10 mg/kg for 20 days; type: functional, organism-based; design: dose 10 mg/kg
[13] = test system: Mus musculus; assay: Toxicity in human MGC803 cells xenografted nude mouse at 10 mg/kg for 20 days; type: organism-based, MGC-803; design: dose 10 mg/kg; conditions: in vivo, 480 h
[14] = test system: Rattus norvegicus; assay: Immunosuppressive activity in rat assessed as increase of skin graft survival time at 0.1 mg/kg; type: functional
[15] = test system: LNCAP-AI; assay: as §1; type: functional, cell-based

## C/C=C/C[C@@H](C)[C@@H](O)[C@H]1C(=O)N[C@@H](CC)C(=O)N(C)CC(=O)N(C)[C@@H](CC(C)C)C(=O)N[C@@H](C(C)C)C(=O)N(C)[C@@H](CC(C)C)C(=O)N[C@@H](C)C(=O)N[C@H](C)C(=O)N(C)[C@@H](CC(C)C)C(=O)N(C)[C@@H](CC(C)C)C(=O)N(C)[C@@H](C(C)C)C(=O)N1C [CYCLOSPORINE]
[1]
  Time: 7.3 days
[2]
  Time: 10.8 days

## CCCCCCCCCCCCCCC(N)(CO)CO
[3]
  Activity: 10 mg/kg
[1]
  Time: 37.3 days
[2]
  Time: 45.5 days
[4]
  inhibition: inactive

## CCCCCCCCc1ccc(CCC(N)(CO)CO)cc1 [FINGOLIMOD]
[5]
  IC50: 0.0061 µM
[1]
  Time: 39.5 days
[2]
  Time: 52 days
[4]
  inhibition: inactive
[6]; MCF7, 78 h
  IC50: 5 µM
[7]; MDA-MB-231, 78 h
  IC50: 5 µM
[8]; SK-BR-3, 78 h
  IC50: 5 µM
[9]; HCT-116, 78 h
  IC50: 5 µM
[10]; SW-620, 78 h
  IC50: 5 µM
[11]
  IC50: 5 µM
[12]
  growth inhibition (GI): Active
[13]
  Activity: Toxic

## CCCCCCC(=O)CCCCCC/C=C/C[C@@H](O)[C@H](O)[C@@](N)(CO)C(=O)O [MYRIOCIN]
[5]
  IC50: 0.003 µM
[3]
  Activity: 1 mg/kg
[4]
  inhibition: Active
[14]
  Time: 2 days

## CCCCCCCCc1ccc(CC[C@](N)(/C=C/P(=O)(O)O)CO)cc1
[6]
  growth inhibition (GI): inactive
[15]
  growth inhibition (GI): inactive

## CCCCCCCCc1ccc(CC[C@](N)(CO)COP(=O)(O)O)cc1
[6]
  growth inhibition (GI): inactive
[7]
  growth inhibition (GI): inactive
[8]
  growth inhibition (GI): inactive
[9]
  growth inhibition (GI): inactive
[10]
  growth inhibition (GI): inactive

## CCCCCCCCCCCCCCCCCCC(N)(CO)CO
[3]
  Activity: 10 mg/kg

## CCCCCCC(O)CCCCCCCCC[C@@H](O)[C@H](O)C(N)(CO)CO (stereo partly drawn)
[3]
  Activity: 100 mg/kg
[1]
  Time: 9.2 days
[2]
  Time: 11 days
